This is an account of results in patent US20240009202A1, “MITOCHONDRIA-TARGETED ANTIOXIDANT AS AGENT FOR TREATING PATHOLOGIC INFLAMMATION CAUSED BY MABC-R INFECTION” (MITOIMMUNE THERAPEUTICS INC., priority 2020, published 2024).

For test [1], the system named is SIRT3. Put plainly: qRT-PCR of Tnf, Il6 and Cxcl2 in Mabc-R-infected BMDMs with 3-TYP. The class given is cell-based, mouse. As to conditions: 3-TYP 50 μM pretreatment, Mabc-R MOI=3, 3 hours (FIG. 3B). On the procedure:
(§1) BMDMs of B and PMs of C were prepared from SIRT3 WT and KO mice, and were infected with Mabc-R (MOI=3) in the presence or absence of 3-TYP (50 μM) for 3 hours. Quantitative real-time PCR analysis for Tnf, Il6, and Cxcl2 was performed. […] (Scale bar, 50 μm. *P<0.05, **P<0.01, ***P<0.001. UI, uninfected. One-way ANOVA (A to D). Data is representative of three independent experiments (D left), and values represent means (±SEM) from three or four independent experiments performed in triplicate (A to C, D right))
(§2) Primary mouse bone marrow-derived macrophages (BMDMs) were isolated and cultured as previously described. BMDMs were isolated and differentiated after culture for 4 to 5 days in medium containing 25 ng/mL macrophage colony-stimulating factor (R&D Systems, Minneapolis, MIN, USA). Peritoneal macrophages (PMs) were isolated 2 to 3 days after injection with 1 mL of PBS supplemented with 3% thioglycollate (Sigma-Aldrich, St. Louis, MO, USA). Prior to isolation, PMs in the mouse abdominal cavity were collected with pre-chilled PBS supplemented with 10% FBS. […]
(§3) RNA extraction and qPCR were performed as described in Reference. […] To analyze qPCR data, relative quantification was performed using the 2^ΔΔCt method using Gapdh as an internal control gene. Data was expressed as a relative fold change. […]
For orientation: Real-time PCR tracks product formation cycle by cycle.

For test [2], the system named is SIRT3. Put plainly: qRT-PCR of Tnf, Il6 and Cxcl2 in Mabc-R-infected PMs with 3-TYP. The test is classed as cell-based, mouse. The note with it: 3-TYP 50 μM pretreatment, Mabc-R MOI=3, 3 hours (FIG. 3C). On the procedure:
as §1, §2, §3

The test system of test [3] is inflammatory cytokines/chemokines (Tnf, Il1b, Il6, Cxcl2, Cxcl5). Put plainly: qRT-PCR analysis for cytokines/chemokines in lung tissues of Mabc-R-infected mice. As to conditions: WT mice, intranasal Mabc-R 1×10^7 CFU, 30 mg/kg, 10 dpi (FIG. 5C). The class given is in vivo, mouse. On the procedure: (§4) Scale bar, 50 μm. (B to E) WT mice (n=5 each group) were left uninfected or infected intranasally with Mabc-R (1×10^7 CFU), prior to treatment with or without the compound represented by Chemical Formula 1 (30 mg/kg) and monitored at 10 days post-infection. […] The ratio of damaged mitochondria among total mitochondria was calculated quantitatively (scale bars, 200 nm). […] (*P<0.05, **P<0.01, ***P<0.001, n.s., not significant. One-way ANOVA (right) or non-parametric test (B, C, D right and E)). (Data represents three independent experiments (A left and D), and values represent means (±SEM) from three or four independent experiments performed in triplicate (A right, B, C, and E))
(§5) RNA extraction and qPCR were performed as described in Reference. Briefly, total RNA from BMDMs or lung tissues was isolated using the TRIzol reagent (Thermo Fisher Scientific). cDNA synthesis was performed using Superscript II reverse transcriptase (Invitrogen, 18064). qPCR was performed using cDNA, primers, and SYBR Green PCR Kits (Qiagen, 204074) using a Real-time PCR Cycler Rotor-Gene Q 2plex system (Qiagen GmbH, 9001620, Hilden, Germany). The samples were amplified for 50 cycles as follows: 95° C. for 5 seconds and 60° C. for 10 seconds. To analyze qPCR data, relative quantification was performed using the 2^ΔΔCt method using Gapdh as an internal control gene. Data was expressed as a relative fold change. […]

A further test deals with mitochondrial ROS. As to the kind of experiment: MitoSOX Red staining of mitochondrial ROS in Mabc-R-infected BMDMs. The class given is cell-based, mouse. The note with it: WT BMDMs, Mabc-R MOI=5, 2 hours, 20 μM, MitoSOX Red (FIG. 5A). On the procedure:
as §4
Mitochondrial ROS were measured as described previously in Reference. […] After 20 minutes, the cells were washed and measured using an immunofluorescence assay. […] The mean fluorescence intensity (MFI) level of mitochondrial ROS was calculated for each sample. Each experiment was performed in triplicate, and at least 200 cells per well were counted.
The mitochondrial ROS scavenger MIT-001 (previously, NecroX-7) removes mitochondrial ROS, calcium, and reactive nitrogen species (References [32 and 33]). […] The present inventors next determined whether inhibition of mitochondrial ROS generation enhanced antimicrobial effects in vivo. […]

A further test deals with Sirt3 mRNA. Put plainly: qRT-PCR analysis for Sirt3 mRNA expression in lungs of Mabc-R-infected mice. The test is classed as in vivo, mouse. As to conditions: 30 mg/kg, 10 dpi (FIG. 5E). On the procedure:
as §4, §5

Test [4] relates to mitochondria in alveolar cells of lung tissues. Put plainly: TEM analysis of damaged mitochondria in lung tissues of Mabc-R-infected mice. The test is classed as in vivo, mouse. As to conditions: Mabc-R-infected mice vs vehicle control mice, 30 mg/kg, 10 dpi, TEM (FIG. 5D). On the procedure: as §4
SIRT3 WT and KO mouse lung tissues were fixed with 2.5% glutaraldehyde in a 0.1 M cacodylate buffer (pH 7.2) containing 0.1% CaCl2). After 3 hours, the cells were post-fixed with 1% OsO4 in a 0.1 M sodium cacodylate buffer containing 0.1% CaCl2) for 2 hours. The tissues were rinsed with cold distilled water and slowly dehydrated using an ethanol series and propylene oxide at 4° C. The tissues were embedded in Embed-812 and cured at 60° C. for 30 hours. Ultrathin sections (70 nm) were cut with a diamond knife and an ULTRACUT UC7 ultramicrotome (Leica) and mounted on formvar-coated copper grids. Sections were stained with 4% uranyl acetate for 7 minutes and lead citrate for 7 minutes. […]

A further test concerns TNF. Put plainly: TNF secretion in lung tissues of Mabc-R-infected mice (ELISA). The test is classed as in vivo, mouse. The note with it: Mabc-R-infected mice treated with MIT-001. How it is done:
The concentration of TNF in lung tissues was measured using a commercially available ELISA kit (BD Biosciences, 558534, San Jose, CA, USA). Experiments were performed according to the protocol provided by the manufacturer.
We next examined the in vivo effects of MIT-001 on pathological inflammatory responses during Mabc-R infection.
In general terms: In an ELISA, binding on a coated surface is turned into a signal by an enzyme label.

The test system of another test is Mabc-R. As to the kind of experiment: Pulmonary CFU assay in mice infected intranasally with Mabc-R. The class given is in vivo, mouse. As to conditions: WT mice, intranasal Mabc-R 1×10^7 CFU, 30 mg/kg at 1, 3, 5, 7 and 9 dpi, sacrificed at 10 dpi (FIG. 5B).

Take `c1cncc(-c2cn[nH]n2)c1` [3-TYP]: the “mRNA expression of proinflammatory cytokines (Tnf, Il6, Cxcl2) after infection with Mabc-R” value in the test with SIRT3 [1] (SIRT3 KO BMDMs) and with SIRT3 [2] (SIRT3 KO PMs) was “no significant effect” in each case. Also, the “mRNA expression of Tnf, Il6, and Cxcl2 in response to Mabc-R” value in the test with SIRT3 [1] (SIRT3 WT BMDMs) and with SIRT3 [2] (SIRT3 WT PMs) was “significantly increased” in each case.

For `O=S1(=O)CCN(Cc2cc(NC3CCOCC3)c3[nH]c(-c4ccccc4)cc3c2)CC1` [MIT-001, 5-[(1,1-dioxido-4-thiomorpholinyl)methyl]-2-phenyl-N-(tetrahydro-2H-pyran-4-yl)-1H-indol-7-amine], in test [3], the “mRNA expression of inflammatory cytokines/chemokines including Tnf, Il1b, Il6, Cxcl2 and Cxcl5 in lung tissues” value is “remarkably ameliorated”. In the test with mitochondrial ROS, the “generation of mitochondrial ROS in response to Mabc-R infection” value is “remarkably suppressed”. The “Sirt3 mRNA levels in mouse lungs” value in the test with Sirt3 mRNA is recorded as “significantly recovered”. In addition, the “damaged mitochondria with disrupted cristae in alveolar cells of lung tissues” value in test [4] is recorded as “considerably fewer damaged mitochondria”. Further, the “TNF secretion in lung tissues” value in the test on TNF is recorded as “significantly downregulated”. Also, the “in vivo bacterial loads in the lungs (pulmonary CFU)” value in the test on Mabc-R is “significantly inhibited”.
